Experimental data: patent US9149038B2, “4-amino-6-(heterocyclic)picolinates and 6-amino-2-(heterocyclic)pyrimidine-4-carboxylates and their use as herbicides” (Dow AgroSciences LLC, priority 2013, dated 2015)

Test system: Key Broadleaf and Grass Weed as well as Crop Species
Test: Pre-Emergent Test I: preemergent herbicidal activity, herbicidal effect rating 14 days after treatment (Table 6)
Type: in vivo
Conditions: for Visual Growth Reduction (%) 14 Days After Application ECHCG: barnyardgrass (Echinochloa crus-galli); for Visual Growth Reduction (%) 14 Days After Application SETFA: giant foxtail (Setaria faberi); for Visual Growth Reduction (%) 14 Days After Application IPOHE: ivyleaf morningglory (Ipomoea hederecea); for Visual Growth Reduction (%) 14 Days After Application HELAN: sunflower (Helianthus annuus); for Visual Growth Reduction (%) 14 Days After Application AVEFA: wild oats (Avena fatua)
Procedure: Herbicidal evaluations were made visually on a scale of 0 to 100 where 0 represents no activity and 100 represents complete plant death. Pre-Emergent Test I: Seeds of test species were planted into round plastic pots (5-inch diameter) containing sandy loam soil. After planting, all pots were sub-irrigated 16 h prior to compound application. Compounds were dissolved in a 97:3 v/v mixture of acetone and DMSO and diluted to the appropriate concentration in a final application solution containing water, acetone, isopropanol, DMSO and Agri-dex (crop oil concentrate) in a 59:23:15:1.0:1.5 v/v ratio and 0.02% w/v (weight/volume) of Triton X-155 to obtain the spray solution containing the highest application rate. The high application rate was serial diluted with the above application solution to provide delivery of the compound at rates ½×, ¼× and ⅛× of the highest rate (equivalent to 4.0, 2.0, 1.0, and 0.5 kg/ha, respectively). Formulated compound (2.7 mL) was applied pipetted evenly over the soil surface followed by incorporation with water (15 mL). Following treatment, pots were returned to the greenhouse for the duration of the experiment. The greenhouse was programmed for an approximate 15 h photoperiod which was maintained at about 23-29° C. during the day and 22-28° C. during the night. Nutrients and water were added on a regular basis through surface irrigation and supplemental lighting was provided with overhead metal halide 1000-Watt lamps as necessary. Herbicidal effect ratings were obtained 14 days after treatment. All evaluations were made relative to appropriate controls on a scale of 0 to 100 where 0 represents no herbicidal effect and 100 represents plant death or lack of emergence from the soil and are presented as indicated in Table 4.

In the case of `Nc1c(F)c(-c2cccc3c2OC(F)(F)O3)nc(C(=O)O)c1Cl` [Compound 74], the “Visual Growth Reduction (%) 14 Days After Application ECHCG” value (3.96 kg ai/ha) was “A (95-100)”, the “Visual Growth Reduction (%) 14 Days After Application SETFA” value (3.96 kg ai/ha) was “E (45-59)” and the “Visual Growth Reduction (%) 14 Days After Application IPOHE” value (3.96 kg ai/ha) was “D (60-74)”. For the same molecule, the “Visual Growth Reduction (%) 14 Days After Application HELAN” value (3.96 kg ai/ha) was “A (95-100)” and the “Visual Growth Reduction (%) 14 Days After Application AVEFA” value (3.96 kg ai/ha) was “D (60-74)”.

`COC(=O)c1nc(-c2cccc3c2OC(F)(F)O3)c(F)c(N)c1Cl` [Compound 73] was tested, and the “Visual Growth Reduction (%) 14 Days After Application ECHCG” value (3.96 kg ai/ha) was “G (0-29)”, the “Visual Growth Reduction (%) 14 Days After Application SETFA” value (3.96 kg ai/ha) was “G (0-29)” and the “Visual Growth Reduction (%) 14 Days After Application IPOHE” value (3.96 kg ai/ha) was “C (75-84)”. The “Visual Growth Reduction (%) 14 Days After Application HELAN” value (3.96 kg ai/ha) was “A (95-100)” and the “Visual Growth Reduction (%) 14 Days After Application AVEFA” value (3.96 kg ai/ha) was “G (0-29)”.

`COC(=O)c1nc(-c2cccc3c2OCO3)c(F)c(N)c1Cl` [Compound 71, Methyl 4-amino-6-(benzo[d][1,3]dioxol-4-yl)-3-chloro-5-fluoropicolinate] was tested, and the “Visual Growth Reduction (%) 14 Days After Application ECHCG” value (4 kg ai/ha) was “F (30-44)”, the “Visual Growth Reduction (%) 14 Days After Application SETFA” value (4 kg ai/ha) was “G (0-29)” and the “Visual Growth Reduction (%) 14 Days After Application IPOHE” value (4 kg ai/ha) was “E (45-59)”. The “Visual Growth Reduction (%) 14 Days After Application HELAN” value (4 kg ai/ha) was “A (95-100)” and the “Visual Growth Reduction (%) 14 Days After Application AVEFA” value (4 kg ai/ha) was “F (30-44)”.

With `Nc1c(F)c(-c2cccc3c2OCO3)nc(C(=O)O)c1Cl` [Compound 72, 4-Amino-6-(benzo[d][1,3]dioxol-4-yl)-3-chloro-5-fluoropicolinic acid] the “Visual Growth Reduction (%) 14 Days After Application ECHCG” value (4 kg ai/ha) was “C (75-84)”, the “Visual Growth Reduction (%) 14 Days After Application SETFA” value (4 kg ai/ha) was “G (0-29)” and the “Visual Growth Reduction (%) 14 Days After Application IPOHE” value (4 kg ai/ha) was “G (0-29)”. The “Visual Growth Reduction (%) 14 Days After Application HELAN” value (4 kg ai/ha) was “A (95-100)” and the “Visual Growth Reduction (%) 14 Days After Application AVEFA” value (4 kg ai/ha) was “D (60-74)”.
